The results in this text go back to patent publication US10045954B2, “Use of novel anti-HPV pharmaceutical preparation” (INSTITUTE OF BIOMEDICAL ENGINEERING, CHINESE ACADEMY OF …, priority 2013, dated 2018).

Where only a bound is given, the exact number is not on record here.

The data set relates to human cervical cancer Caski cells (HPV16 positive). Description: Cytotoxicity assay (MTT, Reed-Muench). Format: cell-based. The conditions noted are these: 72 h. The method, then: (1) Cytotoxicity assay: human cervical cancer Caski cells (HPV16 positive) at an exponential phase cultured through a conventional culturing method is digested by a trypsase, such that the attached cells are detached. The cells are suspended in a liquid medium containing 10% of fetal bovine serum, and are cultured by inoculating in a 96-well plate, each well containing 1×10^5 cells. The cells are incubated in a CO2 incubator for 24 h to make the cells be attached. labeled amount of paracetamol or paracetamol pharmaceutical preparation prepared from examples 1-21 is dissolved in DMSO used for cell culture, and then the solution is diluted with the liquid medium into a series of drug culture media with increasing concentrations, wherein the concentrations are sequentially 25, 50, 100, 200 and 400 μg/mL. The culture medium is decanted, 100 μL drug culture medium formulated according to a multiple relationship is added into the administered group, while a culture medium is used instead of the drug solution for the control group, wherein four vice holes are used at each concentration, and the cells are incubated in a CO2 incubator for 72 h. The median toxic concentration (TC50) and maximal atoxic concentration (TC0) are calculated based on a Reed-Muench method, by using a MTT method.

Take `CC(=O)Nc1ccc(O)cc1` [Example 1, paracetamol]: the TC0 came to 200 µg/mL and the TC50 was over 200 µg/mL.
